# Assays:
# Glucocorticoid receptor [1] = molecular target: T1, Glucocorticoid receptor (Mus musculus, UniProt P06537); experiment: GR-mediated transrepression of IL-6 in peritoneal exudate cells harvested from C57BI/6 mice; assay type: cell-based
# T1 sequence (P06537 whole entry): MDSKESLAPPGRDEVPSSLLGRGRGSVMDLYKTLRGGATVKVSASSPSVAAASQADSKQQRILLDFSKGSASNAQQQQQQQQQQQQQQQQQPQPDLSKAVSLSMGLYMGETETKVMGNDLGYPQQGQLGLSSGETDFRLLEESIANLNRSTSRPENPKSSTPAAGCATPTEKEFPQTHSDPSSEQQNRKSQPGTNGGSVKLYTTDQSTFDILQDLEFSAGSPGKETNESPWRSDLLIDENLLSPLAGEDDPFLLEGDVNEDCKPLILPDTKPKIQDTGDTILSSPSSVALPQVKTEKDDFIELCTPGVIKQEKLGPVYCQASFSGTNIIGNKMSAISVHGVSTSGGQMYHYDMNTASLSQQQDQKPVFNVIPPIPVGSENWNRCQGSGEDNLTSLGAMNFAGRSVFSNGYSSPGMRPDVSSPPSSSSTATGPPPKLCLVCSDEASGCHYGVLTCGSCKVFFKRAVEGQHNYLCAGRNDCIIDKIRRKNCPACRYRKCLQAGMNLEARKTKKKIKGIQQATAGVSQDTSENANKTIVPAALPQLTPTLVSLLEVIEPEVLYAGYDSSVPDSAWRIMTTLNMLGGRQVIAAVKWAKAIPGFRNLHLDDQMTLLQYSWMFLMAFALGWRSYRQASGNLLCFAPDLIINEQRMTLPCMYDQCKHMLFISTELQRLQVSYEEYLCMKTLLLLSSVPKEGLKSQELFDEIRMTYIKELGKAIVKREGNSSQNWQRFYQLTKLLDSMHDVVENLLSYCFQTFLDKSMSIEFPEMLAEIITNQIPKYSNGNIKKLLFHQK
# [2] = molecular target: T2, Glucocorticoid receptor (Mus musculus) (UniProt P06537); experiment: Percent inhibition of LPS-induced tumor necrosis factor alpha release in mice relative to prednisolone at 3 mg/kg dose; assay type: organism-based; set-up: dose 3 mg/kg
# T2 sequence (whole entry): T1 sequence (P06537 whole entry)
# [3] = molecular target: T2, Glucocorticoid receptor (Mus musculus); experiment: Percent absolute inhibition of LPS-induced tumor necrosis factor alpha release in mice at 3 mg/kg dose; assay type: organism-based; set-up: dose 3 mg/kg
# Glucocorticoid receptor [4] = molecular target: T3, Glucocorticoid receptor (Homo sapiens, UniProt P04150); experiment: Inhibition of human glucocorticoid receptor alpha by displacement of [3H]dexamethasone
# T3 sequence (P04150 whole entry): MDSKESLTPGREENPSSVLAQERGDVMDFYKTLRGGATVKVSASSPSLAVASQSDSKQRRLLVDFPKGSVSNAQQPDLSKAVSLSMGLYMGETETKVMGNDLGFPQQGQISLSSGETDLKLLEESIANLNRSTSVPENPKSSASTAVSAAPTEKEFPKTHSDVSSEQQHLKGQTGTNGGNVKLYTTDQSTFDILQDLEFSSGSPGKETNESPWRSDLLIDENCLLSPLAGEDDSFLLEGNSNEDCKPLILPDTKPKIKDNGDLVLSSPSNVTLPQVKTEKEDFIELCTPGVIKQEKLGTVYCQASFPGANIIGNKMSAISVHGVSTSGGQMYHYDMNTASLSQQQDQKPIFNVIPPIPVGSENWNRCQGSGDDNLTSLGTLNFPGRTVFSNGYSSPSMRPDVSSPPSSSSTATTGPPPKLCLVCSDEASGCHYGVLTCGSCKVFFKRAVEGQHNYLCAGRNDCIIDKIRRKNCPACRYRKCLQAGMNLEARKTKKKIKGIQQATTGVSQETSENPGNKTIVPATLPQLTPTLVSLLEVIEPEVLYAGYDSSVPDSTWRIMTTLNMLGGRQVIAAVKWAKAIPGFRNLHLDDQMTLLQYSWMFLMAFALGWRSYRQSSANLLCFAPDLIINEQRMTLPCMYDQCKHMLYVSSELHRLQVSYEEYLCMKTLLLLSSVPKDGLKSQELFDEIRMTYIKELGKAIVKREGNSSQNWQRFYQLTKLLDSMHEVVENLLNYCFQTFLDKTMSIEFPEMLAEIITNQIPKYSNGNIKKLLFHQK
# Glucocorticoid receptor [5] = molecular target: T3, Glucocorticoid receptor; experiment: GR-mediated transrepression of IL-6 in human A549 lung carcinoma cells; assay type: functional, cell-based
# Glucocorticoid receptor [6] = molecular target: T3, Glucocorticoid receptor; experiment: Inhibition of GR-mediated tyrosine amino transferase activity in human HepG2 cells; assay type: cell-based
# Glucocorticoid receptor [7] = molecular target: T1, Glucocorticoid receptor; experiment: Inhibition of mouse glutamine synthetase by GR-mediated transactivation in C2C12 cells; assay type: cell-based
EC50 (Glucocorticoid receptor [6]) [nM],Structure (SMILES),EC50 (Glucocorticoid receptor [1]) [nM],inhibition [2] [%],inhibition [3] [%],IC50 (Glucocorticoid receptor [4]) [nM],EC50 (Glucocorticoid receptor [5]) [nM],EC50 (Glucocorticoid receptor [7]) [nM]
,C[C@]12C=CC(=O)C=C1CC[C@@H]1[C@@H]2[C@@H](O)C[C@@]2(C)[C@H]1CC[C@]2(O)C(=O)CO [PREDNISOLONE],5.7,100,71,,,
,C[C@]12Cc3cnn(-c4ccc(F)cc4)c3C=C1CCC[C@@H]2[C@@H](O)c1csc2ccccc12,54,,,5.1,18,
,COc1cc([C@H](O)[C@H]2CCCC3=Cc4c(cnn4-c4ccc(F)cc4)C[C@@]32C)cc(F)c1F,15,,,,,
,C[C@]12Cc3cnn(-c4ccc(F)cc4)c3C=C1CCC[C@@H]2[C@@H](O)c1ccoc1,45,,,2.9,2.7,
,C[C@]12Cc3cnn(-c4ccc(F)cc4)c3C=C1CCC[C@@H]2[C@@H](O)c1ccncc1,215,,,23.2,38,
356,C[C@]12Cc3cnn(-c4ccc(F)cc4)c3C=C1CCC[C@@H]2[C@H](O)c1csc2ccccc12,11,,,1.5,6,3
,C[C@]12Cc3cnn(-c4ccc(F)cc4)c3C=C1CCC[C@@H]2[C@@H](O)c1ccc(F)nc1,12,,,13.6,13,260
1070,C[C@]12Cc3cnn(-c4ccc(F)cc4)c3C=C1CCC[C@@H]2[C@@H](O)c1ccc(Cl)s1,17,,,7.6,13,34
,C[C@]12Cc3cnn(-c4ccc(F)cc4)c3C=C1CCC[C@@H]2[C@](C)(O)c1ccsc1,5.2,,,,0.96,8.3
,C[C@]12Cc3cnn(-c4ccc(F)cc4)c3C=C1CCC[C@@H]2[C@@H](O)c1cc2ccccc2s1,,,,,19,1210
,C[C@]12Cc3cnn(-c4ccc(F)cc4)c3C=C1CCC[C@@H]2[C@@H](O)c1cccs1,21,,,7.1,37,
,C[C@]12Cc3cnn(-c4ccc(F)cc4)c3C=C1CCC[C@@H]2[C@@H](O)c1cc(Cl)sc1Cl,120,,,10.2,31,
,C[C@]12Cc3cnn(-c4ccc(F)cc4)c3C=C1CCC[C@@H]2[C@@H](O)Cc1ccc(F)cc1,3.7,,,4.6,,17

Structure (SMILES),EC50 (Glucocorticoid receptor [6]) [nM],EC50 (Glucocorticoid receptor [1]) [nM],inhibition [2] [%],inhibition [3] [%],IC50 (Glucocorticoid receptor [4]) [nM],EC50 (Glucocorticoid receptor [5]) [nM],EC50 (Glucocorticoid receptor [7]) [nM]
C[C@]12Cc3cnn(-c4ccc(F)cc4)c3C=C1CCC[C@@H]2[C@H](O)c1ccc(F)nc1,4440,5,,,9.1,21,23

# Source: ChEMBL document CHEMBL1143546, “Novel heterocyclic glucocorticoids: in vitro profile and in vivo efficacy” (Bioorg Med Chem Lett, 2005)
